Drawing on US9034882B2, “Inhibitors of human immunodeficiency virus replication” (priority 2012, dated 2015), this text covers EC50 for 33 compounds.

pEC50: −log10 of the molar value. Like-named read-outs stand apart in the source and are kept apart here. A value given as a limit tells only on which side of the number the result lay.

The experiment deals with recombinant NL-Rluc virus. Briefly: Inhibition of HIV replication (NL-RLuc luciferase reporter virus in MT-2 cells). Format: cell-based. The note with it: for pEC50: read-out: Activity; for EC50: read-out: EC50 μM. A general note: Reporter assays use an easily measured gene product as a stand-in for the process of interest.
Where [1] appears, read: Human immunodeficiency virus 1, MT2, 120 h.
[2] abbreviates: MT-2 cells infected with NL-RLuc virus, 5 days of incubation, luciferase readout, serum condition not given.

On to `Cc1nc2cc(-c3ccccc3)nn2c(N2CCC(C(C)C)CC2)c1C(OC(C)(C)C)C(=O)O` (centres unmarked) [Example 16], for which, under setting [1], the pEC50 was 6.00 to 7.00 and the EC50 (in general, the concentration needed to bring the measured effect to its halfway point) is 0.77 µM. As for `Cc1nc2cc(-c3ccccc3)nn2c(N2CCCC(F)C2)c1C(OC(C)(C)C)C(=O)O` (centres unmarked) [Example 18], under setting [1], the pEC50 is < 6.00. For the compound `Cc1nc2cc(-c3cccc(OCc4ccccc4)c3)nn2c(N2CCC(C)CC2)c1C(OC(C)(C)C)C(=O)O` (centres unmarked) [Example 31, 2-(2-(3-(benzyloxy)phenyl)-5-methyl-7-(4-methylpiperidin-1-yl)pyrazolo[1,5-a]pyrimidin-6-yl)20(tert-butoxy)acetic acid], under setting [1], the pEC50 was > 7.00.

With `Cc1nc2cc(-c3cccc(-c4ccccc4)c3)nn2c(N2CCC(C)(C)CC2)c1C(OC(C)(C)C)C(=O)O` (centres unmarked) [Example 35, 2-(2-([1,1′-Biphenyl]-3-yl)-7-(4,4-dimethylpiperidin-1-yl)-5-methylpyrazolo[1,5-a]pyrimidin-6-yl)-2-(tert-butoxy)acetic acid], under setting [1], the pEC50 is 6.00 to 7.00 and the EC50 was 0.13 µM. Consider `Cc1nc2cc(-c3ccccc3)nn2c(N2CCC3(CC2)CC3)c1[C@H](OC(C)(C)C)C(=O)O` [Example 30, (S)-2-(tert-butoxy)-2-(5-methyl-2-phenyl-7-(6-azaspiro[2.5]octan-6-yl)pyrazolo[1,5-a]pyrimidin-6-yl)acetic acid], for which the pEC50 under setting [1] was 6.00 to 7.00. Still for that read-out and setting: as for `Cc1nc2nc(-c3ccccc3)nn2c(N2CC[C@H]3CCCC[C@@H]3C2)c1C(OC(C)(C)C)C(=O)O` (stereo partly drawn) [Example 40, 2-(tert-Butoxy)-2-(5-methyl-7-((4aR,8aS)-octahydroisoquinolin-2(1H)-yl)-2-phenyl-[1,2,4]triazolo[1,5-a]pyrimidin-6-yl)acetic acid], the figure is < 6.00; as for `Cc1nc2cc(-c3ccccc3)nn2c(N2CCC(O)CC2)c1C(OC(C)(C)C)C(=O)O` (centres unmarked) [Example 15], < 6.00. As for `Cc1nc2cc(-c3ccccc3)nn2c(N2CCC(Br)CC2)c1C(OC(C)(C)C)C(=O)O` (centres unmarked) [Example 22], under setting [1], the pEC50 was < 6.00.

Take `Cc1nc2cc(-c3ccccc3)nn2c(N2CCC(F)(F)CC2)c1C(OC(C)(C)C)C(=O)O` (centres unmarked) [Example 21]: the pEC50 under setting [1] was < 6.00. In the case of `Cc1nc2cc(-c3cccc(-c4ccccc4)c3)nn2c(N2CCC3(C)CC3C2)c1[C@H](OC(C)(C)C)C(=O)O` (stereo partly drawn) [Example 62, (2S)-2-(2-([1,1′-Biphenyl]-3-yl)-5-methyl-7-(6-methyl-3-azabicyclo[4.1.0]heptan-3-yl)pyrazolo[1,5-a]pyrimidin-6-yl)-2-(tert-butoxy)acetic acid], the 50% effective concentration (EC50) under setting [1] worked out at 0.42 µM. Moreover, under setting [2], the pEC50 is 6.00 to 7.00. As for `Cc1nc2cc(-c3cccc(-c4ccccc4F)c3)nn2c(N2CCC3(C)CC3C2)c1[C@H](OC(C)(C)C)C(=O)O` (stereo partly drawn) [Example 64, (2S)-2-(tert-Butoxy)-2-(2-(2′-fluoro-[1,1′-biphenyl]-3-yl)-5-methyl-7-(6-methyl-3-azabicyclo[4.1.0]heptan-3-yl)pyrazolo[1,5-a]pyrimidin-6-yl)acetic acid], under setting [2], the pEC50 is 6.00 to 7.00. Turning to `Cc1nc2cc(-c3cccc(-c4ccccc4F)c3)nn2c(N2CCC(C)(C)CC2)c1[C@H](OC(C)(C)C)C(=O)O` [Example 52, (S)-2-(tert-Butoxy)-2-(7-(4,4-dimethylpiperidin-1-yl)-2-(2′-fluoro-[1,1′-biphenyl]-3-yl)-5-methylpyrazolo[1,5-a]pyrimidin-6-yl)acetic acid], under setting [1], the pEC50 is > 7.00 and the EC50 is 0.05 µM. Take `Cc1nc2cc(-c3cccc(-c4ccccc4)c3)nn2c(N2CCOC(C)(C)C2)c1[C@H](OC(C)(C)C)C(=O)O` [Example 49, (S)-2-(2-([1,1′-Biphenyl]-3-yl)-7-(2,2-dimethylmorpholino)-5-methylpyrazolo[1,5-a]pyrimidin-6-yl)-2-(tert-butoxy)acetic acid]: under setting [1], the pEC50 is 6.00 to 7.00. Regarding `Cc1nc2cc(-c3ccccc3)nn2c(N2CCN(C)CC2)c1C(OC(C)(C)C)C(=O)O` (centres unmarked) [Example 7, 2-(tert-butoxy)-2-(5-methyl-7(4-methylpiperazin-1-yl)-2-phenylpyrazolo[1,5a]pyrimidin-6-yl)acetic acid], under setting [1], the pEC50 was < 6.00 and the 50% effective concentration (EC50) came out at 5.2 µM. Consider `Cc1nc2cc(-c3ccccc3)nn2c(N2CCCC(C)C2)c1C(OC(C)(C)C)C(=O)O` (centres unmarked) [Example 10], for which the pEC50 under setting [1] is < 6.00. As to `Cc1nc2cc(-c3cccc(-c4ccc5cnn(C)c5c4)c3)nn2c(N2CCC(C)(C)CC2)c1[C@H](OC(C)(C)C)C(=O)O` [Example 57, (S)-2-(tert-Butoxy)-2-(7-(4,4-dimethylpiperidin-1-yl)-5-methyl-2-(3-(1-methyl-1H-indazol-6-yl)phenyl)pyrazolo[1,5-a]pyrimidin-6-yl)acetic acid], under setting [1], the pEC50 was > 7.00. Regarding `Cc1nc2cc(-c3ccccc3)nn2c(N2C(C)COCC2C)c1C(OC(C)(C)C)C(=O)O` (centres unmarked) [Example 9], the pEC50 under setting [1] was < 6.00. On the same count and under the same terms, the same measure for `Cc1nc2nc(-c3ccccc3)nn2c(N2CC[C@H]3CCCC[C@H]3C2)c1C(OC(C)(C)C)C(=O)O` (stereo partly drawn) [Example 39, 2-(tert-Butoxy)-2-(5-methyl-7-((4aR,8aR)-octahydroisoquinolin-2(1H)-yl)-2-phenyl-[1,2,4]triazolo[1,5-a]pyrimidin-6-yl)acetic acid]: 6.00 to 7.00. In the case of `Cc1nc2cc(-c3ccccc3)nn2c(N2CCC3(CCCC3)C2)c1[C@H](OC(C)(C)C)C(=O)O` [Example 26, (S)-2-(tert-butoxy)-2-(5-methyl-2-phenyl-7-(2-azaspiro[4.4]nonan-2-yl)pyrazolo[1,5-a]pyrimidin-6-yl)acetic acid], under setting [1], the pEC50 was 6.00 to 7.00 and the EC50 was 0.3 µM. The corresponding values for `COc1ccccc1-c1cccc(-c2cc3nc(C)c([C@H](OC(C)(C)C)C(=O)O)c(N4CCC(C)(C)CC4)n3n2)c1` [Example 59, (S)-2-(tert-Butoxy)-2-(7-(4,4-dimethylpiperidin-1-yl)-2-(2′-methoxy-[1,1′-biphenyl]-3-yl)-5-methylpyrazolo[1,5-a]pyrimidin-6-yl)acetic acid] are > 7.00 and 0.015 µM. For the compound `Cc1nc2cc(-c3cccc(Oc4ccccc4)n3)nn2c(N2CCC(C)(C)CC2)c1[C@H](OC(C)(C)C)C(=O)O` [Example 68, (S)-2-(tert-Butoxy)-2-(7-(4,4-dimethylpiperidin-1-yl)-5-methyl-2-(6-phenoxypyridin-2-yl)pyrazolo[1,5-a]pyrimidin-6-yl)acetic acid], under setting [1], the pEC50 was 6.00 to 7.00. As for `Cc1nc2cc(-c3ccccc3)nn2c(N2CCC3(CCCC3)CC2)c1[C@H](OC(C)(C)C)C(=O)O` [Example 27, (S)-2-(tert-butoxy)-2-(5-methyl-2-phenyl-7-(8-azaspiro[4.5]decan-8-yl)pyrazolo[1,5-a]pyrimidin-6-yl) acetic acid], under setting [1], the pEC50 was < 6.00. Take `Cc1nc2nc(-c3ccccc3)nn2c(N2CCC(C)(C)CC2)c1C(OC(C)(C)C)C(=O)O` (centres unmarked) [Example 37, 2-tert-Butoxy-2-(7-(4,4-dimethylpiperidin-1-yl)-5-methyl-2-phenyl-[1,2,4]triazolo[1,5-a]pyrimidin-6-yl)acetic acid]: under setting [1], the pEC50 was 6.00 to 7.00 and the half-maximal effective concentration (EC50) was 0.24 µM. Turning to `Cc1nc2cc(-c3cccc(-c4cccc(F)c4)c3)nn2c(N2CCC3(CC2)CC3)c1[C@H](OC(C)(C)C)C(=O)O` [Example 53, (S)-2-(tert-Butoxy)-2-(2-(3′-fluoro-[1,1′-biphenyl]-3-yl)-5-methyl-7-(6-azaspiro[2.5]octan-6-yl)pyrazolo[1,5-a]pyrimidin-6-yl)acetic acid], the pEC50 under setting [1] is 6.00 to 7.00. Same read-out and setting: as for `Cc1nc2cc(-c3cccc(Oc4ccccc4)c3)nn2c(N2CCC(C)(C)CC2)c1[C@H](OC(C)(C)C)C(=O)O` [Example 66, (S)-2-(tert-Butoxy)-2-(7-(4,4-dimethylpiperidin-1-yl)-5-methyl-2-(3-phenoxyphenyl)pyrazolo[1,5-a]pyrimidin-6-yl)acetic acid], the figure is 6.00 to 7.00; as for `Cc1nc2nc(-c3ccccc3)nn2c(N2CCCC(C)(C)C2)c1C(OC(C)(C)C)C(=O)O` (centres unmarked) [Example 41, 2-(tert-Butoxy)-2-(7-(3,3-dimethylpiperidin-1-yl)-5-methyl-2-phenyl-[1,2,4]triazolo[1,5-a]pyrimidin-6-yl)acetic acid], > 7.00; as for `Cc1nc2cc(-c3ccccc3)nn2c(N2CCC(C(N)=O)CC2)c1C(OC(C)(C)C)C(=O)O` (centres unmarked) [Example 24], < 6.00. Same read-out and setting: the same measure for `Cc1nc2cc(-c3ccccc3)nn2c(N2CCC(F)CC2)c1C(OC(C)(C)C)C(=O)O` (centres unmarked) [Example 12]: < 6.00. For `Cc1nc2cc(-c3cccc(-c4ccccc4)c3)nn2c(N2C3CCCC2COC3)c1[C@H](OC(C)(C)C)C(=O)O` [Example 48, (2S)-2-(2-([1,1′-Biphenyl]-3-yl)-7-(3-oxa-9-azabicyclo[3.3.1]nonan-9-yl)-5-methylpyrazolo[1,5-a]pyrimidin-6-yl)-2-(tert-butoxy)acetic acid], the pEC50 under setting [1] was < 6.00. The same measure, in the same setting: as for `Cc1nc2cc(-c3cccc(-c4ccccc4)c3)nn2c(N2CCS(=O)(=O)CC2)c1[C@H](OC(C)(C)C)C(=O)O` [Example 46, (S)-2-(2-([1,1′-Biphenyl]-3-yl)-7-(1,1-dioxidothiomorpholino)-5-methylpyrazolo[1,5-a]pyrimidin-6-yl)-2-(tert-butoxy)acetic acid], the figure is 6.00 to 7.00; as for `CCC1(C)CCN(c2c([C@H](OC(C)(C)C)C(=O)O)c(C)nc3cc(-c4ccccc4)nn23)CC1` [Example 29, (S)-2-(tert-butoxy)-2-(7-(4-ethyl-4-methylpiperidin-1-yl)-5-methyl-2-phenylpyrazolo[1,5-a]pyrimidin-6-yl)acetic acid], 6.00 to 7.00; as for `Cc1nc2nc(-c3ccccc3)nn2c(N2CCC(C)CC2)c1C(OC(C)(C)C)C(=O)O` (centres unmarked) [Example 38, 2-tert-Butoxy-2-(5-methyl-7-(4-methylpiperidin-1-yl)-2-phenyl-[1,2,4]triazolo[1,5-a]pyrimidin-6-yl)acetic acid], < 6.00. Same read-out and setting: as for `Cc1nc2cc(-c3cccc(-c4ccc5cnn(C)c5c4)c3)nn2c(N2CCC3(CC2)CC3)c1[C@H](OC(C)(C)C)C(=O)O` [Example 60, (S)-2-(tert-Butoxy)-2-(5-methyl-2-(3-(1-methyl-1H-indazol-6-yl)phenyl)-7-(6-azaspiro[2.5]octan-6-yl)pyrazolo[1,5-a]pyrimidin-6-yl)acetic acid], the figure is > 7.00.
